The structures appear in SMILES notation.

Chain of human NaV 1.8 (Q9Y5Y9 126-399 limits assumed): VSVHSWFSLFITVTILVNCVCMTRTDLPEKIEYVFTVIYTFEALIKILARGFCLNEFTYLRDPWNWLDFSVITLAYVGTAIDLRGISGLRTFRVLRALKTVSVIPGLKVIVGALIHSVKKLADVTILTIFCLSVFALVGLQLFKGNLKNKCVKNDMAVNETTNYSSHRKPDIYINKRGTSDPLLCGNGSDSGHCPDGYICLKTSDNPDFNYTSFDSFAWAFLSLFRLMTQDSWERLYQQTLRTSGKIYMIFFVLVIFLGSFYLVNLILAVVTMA
Chain of human NaV 1.8 (Q9Y5Y9 660-890 limits assumed): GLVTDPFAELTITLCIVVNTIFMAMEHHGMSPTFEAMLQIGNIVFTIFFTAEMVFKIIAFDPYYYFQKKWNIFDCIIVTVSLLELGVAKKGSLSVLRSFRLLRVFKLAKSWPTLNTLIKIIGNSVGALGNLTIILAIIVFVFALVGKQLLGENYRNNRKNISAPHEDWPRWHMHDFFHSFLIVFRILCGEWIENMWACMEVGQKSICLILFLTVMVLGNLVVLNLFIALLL
Chain of human NaV 1.8 (Q9Y5Y9 1148-1722 limits assumed): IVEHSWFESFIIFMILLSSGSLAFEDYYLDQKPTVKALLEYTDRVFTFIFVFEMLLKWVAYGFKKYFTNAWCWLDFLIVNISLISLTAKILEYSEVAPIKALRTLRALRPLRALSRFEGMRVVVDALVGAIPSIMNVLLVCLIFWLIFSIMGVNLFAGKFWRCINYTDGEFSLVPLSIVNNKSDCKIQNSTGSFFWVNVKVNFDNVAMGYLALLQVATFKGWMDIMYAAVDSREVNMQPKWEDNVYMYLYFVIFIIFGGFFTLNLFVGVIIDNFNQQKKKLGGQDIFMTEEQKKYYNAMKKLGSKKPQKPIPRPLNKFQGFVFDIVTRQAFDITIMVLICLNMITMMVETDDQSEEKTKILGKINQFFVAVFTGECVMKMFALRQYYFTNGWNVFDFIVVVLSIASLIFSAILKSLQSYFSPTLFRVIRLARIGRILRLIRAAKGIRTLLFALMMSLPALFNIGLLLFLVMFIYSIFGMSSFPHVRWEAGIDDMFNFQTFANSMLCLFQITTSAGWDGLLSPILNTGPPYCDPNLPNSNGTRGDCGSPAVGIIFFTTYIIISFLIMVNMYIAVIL

The target in one assay is human NaV 1.8 (Homo sapiens, UniProt Q9Y5Y9). As to the kind of experiment: E-VIPR assay detecting and measuring NaV inhibition properties. The settings on record: HEK cells expressing truncated human NaV 1.8; in the presence of human serum (compound numbers followed by *); read-out: IC50 in the E-VIPR Assay, performed in the presence of human serum. The format is cell-based. Put shortly:
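HEK cells expressing truncated, fully active human NaV1.8, with KIR2.1 BacMam co-transduction, were loaded with CC2-DMPE/DiSBAC6(3) voltage-sensing dyes for 20 min at room temperature. Compounds were tested in 11-point 3-fold dilutions (300 nM top final), optionally with 25% human serum, under electrical stimulation with FRET read-out.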
On to `COc1c(C2CC(C)(C(F)(F)F)OC2C(=O)Nc2ccnc(C(O)C(C)O)c2)ccc(F)c1F` (single isomer, unassigned) [Compound 697], for which the IC50 is ≥ 1000 nM.

Consider `C[C@@H]1[C@H](c2ccc(F)c(F)c2OC(F)F)[C@@H](C(=O)Nc2cncc(C#N)c2)O[C@]1(C)C(F)(F)F` (single isomer, unassigned) [Compound 69], for which the IC50 was ≥ 1000 nM.

In the case of `COc1cc(F)ccc1[C@@H]1C[C@](C)(C(F)(F)F)O[C@H]1C(=O)Nc1ccnc(S(C)(=O)=O)c1` (stereo in doubt) [Compound 714, rel-(2R,3S,5R)-3-(4-fluoro-2-methoxyphenyl)-5-methyl-N-(2-(methylsulfonyl)pyridin-4-yl)-5-(trifluoromethyl)tetrahydrofuran-2-carboxamide], the IC50 was in the range of 100 to 1000 nM.

Staying with this assay, now noted: HEK cells expressing truncated human NaV 1.8; no human serum; read-out: IC50 in the E-VIPR Assay.
On to `Cc1nn(C(F)F)cc1NC(=O)[C@@H]1O[C@@](C)(C(F)(F)F)[C@@H](C)[C@H]1c1ccc(F)c(F)c1OCC1COC1` [Compound 579, (2R,3S,4S,5R)-3-(3,4-difluoro-2-(oxetan-3-ylmethoxy)phenyl)-N-(1-(difluoromethyl)-3-methyl-1H-pyrazol-4-yl)-4,5-dimethyl-5-(trifluoromethyl)tetrahydrofuran-2-carboxamide], for which the half-inhibitory concentration (IC50) is < 10 nM.

Take `COc1c([C@H]2[C@H](C(=O)Nc3ccc(C#CCO)nc3)O[C@@](C)(C(F)(F)F)[C@H]2C)ccc(F)c1F` [Compound 403, (2R,3S,4S,5R)-3-(3,4-difluoro-2-methoxyphenyl)-N-(6-(3-hydroxyprop-1-yn-1-yl)pyridin-3-yl)-4,5-dimethyl-5-(trifluoromethyl)-tetrahydrofuran-2-carboxamide]: the IC50 lay within 10 to 100 nM.

With `COCn1cnc(NC(=O)[C@@H]2O[C@@](C)(C(F)(F)F)[C@@H](C)[C@H]2c2ccc(F)c(F)c2OCCO)n1` [Compound 553, (2R,3S,4S,5R)-3-(3,4-difluoro-2-(2-hydroxyethoxy)phenyl)-N-(1-(methoxymethyl)-1H-1,2,4-triazol-3-yl)-4,5-dimethyl-5-(trifluoromethyl)tetrahydrofuran-2-carboxamide], the IC50 is ≥ 1000 nM.

Consider `COCCOc1cc(NC(=O)C2OC(C)(C(F)(F)F)C(C)C2c2ccc(F)c(F)c2OC)cnn1` (single isomer, unassigned) [Compound 34, 3-(3,4-difluoro-2-methoxy-phenyl)-N-[6-(2-methoxyethoxy)pyridazin-4-yl]-4,5-dimethyl-5-(trifluoromethyl)tetrahydrofuran-2-carboxamide], for which the IC50 was 10 to 100 nM.

Consider `COc1c([C@H]2[C@H](C(=O)Nc3ccnc(C4COCCN4)c3)O[C@@](C)(C(F)(F)F)[C@H]2C)ccc(F)c1F` (single isomer, unassigned) [Compound 342, rel-(2R*,3S*,4S*,5R*)-3-(3,4-difluoro-2-methoxyphenyl)-4,5-dimethyl-N-(2-(morpholin-3-yl)pyridin-4-yl)-5-(trifluoromethyl)-tetrahydrofuran-2-carboxamide], for which the IC50 is 10 to 100 nM.

With `Cc1nocc1NC(=O)[C@@H]1O[C@@](C)(C(F)(F)F)[C@@H](C)[C@H]1c1ccc(F)c(F)c1OCCN1CC2(COC2)C1` [Compound 619, (2R,3S,4S,5R)-3-(2-(2-(2-oxa-6-azaspiro[3.3]heptan-6-yl)ethoxy)-3,4-difluorophenyl)-4,5-dimethyl-N-(3-methylisoxazol-4-yl)-5-(trifluoromethyl)tetrahydrofuran-2-carboxamide], the IC50 is 10 to 100 nM.

As to `COc1c([C@H]2[C@H](C(=O)Nc3ccnc(N4CCC[C@@H]4CO)c3)O[C@@](C)(C(F)(F)F)[C@H]2C)ccc(F)c1F` [Compound 520, (2R,3S,4S,5R)-3-(3,4-difluoro-2-methoxy-phenyl)-N-[2-[(2R)-2-(hydroxymethyl)pyrrolidin-1-yl]-4-pyridyl]-4,5-dimethyl-5-(trifluoromethyl)tetrahydrofuran-2-carboxamide], the IC50 lay in the range of 10 to 100 nM.

For `COc1c([C@H]2[C@H](C(=O)Nc3ccnc(N4C[C@@H]5CC[C@@H](N5)C4=O)c3)O[C@@](C)(C(F)(F)F)[C@H]2C)ccc(F)c1F` (single isomer, unassigned) [Compound 494, rel-(2R*,3S*,4S*,5R*)-3-(3,4-difluoro-2-methoxyphenyl)-4,5-dimethyl-N-(2-((1R,5S)-2-oxo-3,8-diazabicyclo[3.2.1]octan-3-yl)pyridin-4-yl)-5-(trifluoromethyl)tetrahydrofuran-2-carboxamide], the IC50 lay in the range of 10 to 100 nM.

For `CCOc1c([C@H]2[C@H](C(=O)Nc3ccnc(S(C)(=O)=O)c3)O[C@@](C)(C(F)(F)F)[C@H]2C)ccc(F)c1F` (stereo in doubt) [Compound 108, rel-(2R,3S,4S,5R)-3-(2-ethoxy-3,4-difluorophenyl)-4,5-dimethyl-N-(2-(methylsulfonyl)pyridin-4-yl)-5-(trifluoromethyl)tetrahydrofuran-2-carboxamide], the IC50 is < 10 nM.

`CCS(=O)(=O)c1cc(NC(=O)[C@@H]2O[C@@](C)(C(F)(F)F)[C@@H](C)[C@H]2c2ccc(F)c(F)c2OC(F)F)ccn1` (single isomer, unassigned) [Compound 90]: the IC50 was < 10 nM.

Turning to `C[C@H]1[C@@H](c2ccc(F)c(F)c2OCC2COC2)[C@H](C(=O)Nc2cccnc2)O[C@@]1(C)C(F)(F)F` [Compound 578, (2R,3S,4S,5R)-3-(3,4-difluoro-2-(oxetan-3-ylmethoxy)phenyl)-4,5-dimethyl-N-(pyridin-3-yl)-5-(trifluoromethyl)tetrahydrofuran-2-carboxamide], the IC50 is 10 to 100 nM.

Consider `Cc1nocc1NC(=O)[C@@H]1O[C@@](C)(C(F)(F)F)[C@@H](C)[C@H]1c1ccc(F)c(F)c1OCCN1CC(C)(O)C1` [Compound 626, (2R,3S,4S,5R)-3-(3,4-difluoro-2-(2-(3-hydroxy-3-methylazetidin-1-yl)ethoxy)phenyl)-4,5-dimethyl-N-(3-methylisoxazol-4-yl)-5-(trifluoromethyl)tetrahydrofuran-2-carboxamide], for which the IC50 fell in the range of 100 to 1000 nM.

For `COc1c([C@H]2[C@H](C(=O)Nc3ccnc(C(C)(O)CO)c3)OC(C)(C)[C@H]2C)ccc(F)c1F` (single isomer, unassigned) [Compound 732], the concentration for half-maximal inhibition (IC50) lay within 10 to 100 nM.

`COc1c([C@H]2[C@H](C(=O)Nc3ccnc(N4CCN(C)CC4=O)c3)O[C@@](C)(C(F)(F)F)[C@H]2C)ccc(F)c1F` [Compound 379, (2R,3S,4S,5R)-3-(3,4-difluoro-2-methoxyphenyl)-4,5-dimethyl-N-(2-(4-methyl-2-oxopiperazin-1-yl)pyridin-4-yl)-5-(trifluoromethyl)tetrahydrofuran-2-carboxamide]: the half-inhibitory concentration (IC50) is < 10 nM.

As for `COc1c([C@H]2[C@H](C(=O)Nc3cnnc(N4C(=O)CN(C)C[C@H]4C)c3)O[C@@](C)(C(F)(F)F)[C@H]2C)ccc(F)c1F` [Compound 384, (2R,3S,4S,5R)-3-(3,4-difluoro-2-methoxyphenyl)-N-(6-((R)-2,4-dimethyl-6-oxopiperazin-1-yl)pyridazin-4-yl)-4,5-dimethyl-5-(trifluoromethyl)tetrahydrofuran-2-carboxamide], the 50% inhibitory concentration (IC50) is < 10 nM.

As to `COc1c([C@H]2[C@H](C(=O)Nc3ccc(S(C)(=N)=O)nc3)O[C@@](C)(C(F)(F)F)[C@H]2C)ccc(F)c1F` (single isomer, unassigned) [Compound 337, rel-(2R*,3S*,4S*,5R*)-3-(3,4-difluoro-2-methoxyphenyl)-4,5-dimethyl-N-(6-(S-methylsulfonimidoyl)-pyridin-3-yl)-5-(trifluoromethyl)-tetrahydrofuran-2-carboxamide], the IC50 was 10 to 100 nM.

On to `C[C@@H]1[C@H](c2ccc(F)c(F)c2OC(F)F)[C@@H](C(=O)Nc2ccn3nnnc3c2)O[C@]1(C)C(F)(F)F` (single isomer, unassigned) [Compound 79], for which the IC50 lay in the range of 100 to 1000 nM.

Turning to `COCC(NC(C)C)c1ccc(NC(=O)[C@@H]2O[C@@](C)(C(F)(F)F)[C@@H](C)[C@H]2c2ccc(F)c(F)c2OC)cn1` (single isomer, unassigned) [Compound 421, rel-(2R*,3S*,4S*,5R*)-3-(3,4-difluoro-2-methoxyphenyl)-N-(6-(1-(isopropylamino)-2-methoxyethyl)pyridin-3-yl)-4,5-dimethyl-5-(trifluoromethyl)-tetrahydrofuran-2-carboxamide], the IC50 is 100 to 1000 nM.

For `COc1c([C@H]2[C@H](C(=O)Nc3cn(C4CCOCC4)nc3C)O[C@@](C)(C(F)(F)F)[C@H]2C)ccc(F)c1F` [Compound 325, (2R,3S,4S,5R)-3-(3,4-difluoro-2-methoxyphenyl)-4,5-dimethyl-N-(3-methyl-1-(tetrahydro-2H-pyran-4-yl)-1H-pyrazol-4-yl)-5-(trifluoromethyl)-tetrahydrofuran-2-carboxamide], the IC50 is 10 to 100 nM.

Consider `C[C@H]1[C@@H](c2ccc(F)c(F)c2OCCO)[C@H](C(=O)Nc2cnn(CC#N)c2)O[C@@]1(C)C(F)(F)F` [Compound 549, (2R,3S,4S,5R)-N-(1-(cyanomethyl)-1H-pyrazol-4-yl)-3-(3,4-difluoro-2-(2-hydroxyethoxy)phenyl)-4,5-dimethyl-5-(trifluoromethyl)tetrahydrofuran-2-carboxamide], for which the IC50 was 100 to 1000 nM.

With `COc1c(C2C(C(=O)Nc3cccc(P(C)(C)=O)c3)OC(C)(C(F)(F)F)C2C)ccc(F)c1F` (single isomer, unassigned) [Compound 41, 3-(3,4-difluoro-2-methoxy-phenyl)-N-(3-dimethylphosphorylphenyl)-4,5-dimethyl-5-(trifluoromethyl)tetrahydrofuran-2-carboxamide], the IC50 is ≥ 1000 nM.

Regarding `COc1c([C@@H]2[C@@H](C(=O)Nc3ccc(C(N)=O)nc3)O[C@](C)(C(F)(F)F)[C@@H]2C)cccc1C(F)(F)F` (stereo in doubt) [Compound 157, rel-5-((2S,3R,4R,5S)-3-(2-methoxy-3-(trifluoromethyl)phenyl)-4,5-dimethyl-5-(trifluoromethyl)tetrahydrofuran-2-carboxamido)picolinamide], the IC50 is ≥ 1000 nM.
